From the supplement of paper PMC10307832

Assays:
Assay in all cases: relative viability (nuclei count vs DMSO), 5 days (fraction); higher = more cells survive
A-427 = tested on: A-427
Outline: (§1)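 Medians of duplicate plates are given as relative viability. That measure is the nuclei count in treated wells divided by the count in vehicle wells. Counts were taken on 4× images of lung cancer cell lines in 1536-well plates, 5 days after pin-tool dosing the day after seeding with one drug alone or a fixed anchor-drug dose plus five library-drug doses (not always all listed) in √10 steps.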

COR-L 105 = tested on: COR-L 105
Outline: as §1

EKVX = tested on: EKVX
Outline: as §1

EMC-BAC-2 = tested on: EMC-BAC-2
Outline: as §1

H3255 = tested on: H3255
Outline: as §1

HCC-366 = tested on: HCC-366
Outline: as §1

LK-2 = tested on: LK-2
Outline: as §1

LOU-NH91 = tested on: LOU-NH91
Outline: as §1

NCI-H1563 = tested on: NCI-H1563
Outline: as §1

NCI-H1666 = tested on: NCI-H1666
Outline: as §1

NCI-H1734 = tested on: NCI-H1734
Outline: as §1

NCI-H1755 = tested on: NCI-H1755
Outline: as §1

NCI-H1975 = tested on: NCI-H1975
Outline: as §1

NCI-H23 = tested on: NCI-H23
Outline: as §1

NCI-H441 = tested on: NCI-H441
Outline: as §1

NCI-H520 = tested on: NCI-H520
Outline: as §1

NCI-H596 = tested on: NCI-H596
Outline: as §1

PC-3 [JPC-3] = tested on: PC-3 [JPC-3]
Outline: as §1

SK-MES-1 = tested on: SK-MES-1
Outline: as §1

COc1cc2nccc(Oc3ccc(NC(=O)Nc4cc(C)on4)c(Cl)c3)c2cc1OC [Tivozanib] + C[C@]1(O)C[C@@H](c2nc(-c3ccc4ccc(-c5ccccc5)nc4c3)c3c(N)nccn32)C1 [Linsitinib] (partner 1 µM)
relative viability (A-427; first compound 0.005 µM): 1.09 | relative viability (A-427; first compound 0.01581 µM): 1.1 | relative viability (A-427; first compound 0.05 µM): 1.23 | relative viability (A-427; first compound 0.1581 µM): 0.987 | relative viability (A-427; first compound 0.5 µM): 1.07 | relative viability (COR-L 105; first compound 0.01581 µM): 1.25 | relative viability (COR-L 105; first compound 0.05 µM): 1.02 | relative viability (COR-L 105; first compound 0.1581 µM): 1.02 | relative viability (COR-L 105; first compound 0.5 µM): 0.904 | relative viability (EKVX; first compound 0.005 µM): 0.95 | relative viability (EKVX; first compound 0.01581 µM): 0.931 | relative viability (EKVX; first compound 0.05 µM): 1.07 | relative viability (EKVX; first compound 0.1581 µM): 1.07 | relative viability (EKVX; first compound 0.5 µM): 1.09 | relative viability (EMC-BAC-2; first compound 0.005 µM): 0.847 | relative viability (EMC-BAC-2; first compound 0.01581 µM): 0.787 | relative viability (EMC-BAC-2; first compound 0.05 µM): 0.844 | relative viability (EMC-BAC-2; first compound 0.1581 µM): 0.782 | relative viability (EMC-BAC-2; first compound 0.5 µM): 0.821 | relative viability (H3255; first compound 0.005 µM): 0.965 | relative viability (H3255; first compound 0.01581 µM): 0.933 | relative viability (H3255; first compound 0.05 µM): 1.09 | relative viability (H3255; first compound 0.1581 µM): 1.05 | relative viability (H3255; first compound 0.5 µM): 0.891 | relative viability (HCC-366; first compound 0.005 µM): 0.475 | relative viability (HCC-366; first compound 0.01581 µM): 0.57 | relative viability (HCC-366; first compound 0.05 µM): 0.712 | relative viability (HCC-366; first compound 0.1581 µM): 0.516 | relative viability (HCC-366; first compound 0.5 µM): 0.606 | relative viability (LK-2; first compound 0.005 µM): 0.521 | relative viability (LK-2; first compound 0.01581 µM): 0.616 | relative viability (LK-2; first compound 0.05 µM): 0.49 | relative viability (LK-2; first compound 0.1581 µM): 0.601 | relative viability (LK-2; first compound 0.5 µM): 0.393 | relative viability (LOU-NH91; first compound 0.005 µM): 0.934 | relative viability (LOU-NH91; first compound 0.01581 µM): 0.941 | relative viability (LOU-NH91; first compound 0.05 µM): 0.981 | relative viability (LOU-NH91; first compound 0.1581 µM): 0.933 | relative viability (LOU-NH91; first compound 0.5 µM): 1 | relative viability (NCI-H1563; first compound 0.005 µM): 1.19 | relative viability (NCI-H1563; first compound 0.01581 µM): 1.32 | relative viability (NCI-H1563; first compound 0.05 µM): 1.24 | relative viability (NCI-H1563; first compound 0.1581 µM): 1.12 | relative viability (NCI-H1563; first compound 0.5 µM): 1.22 | relative viability (NCI-H1666; first compound 0.005 µM): 0.748 | relative viability (NCI-H1666; first compound 0.01581 µM): 0.856 | relative viability (NCI-H1666; first compound 0.05 µM): 0.975 | relative viability (NCI-H1666; first compound 0.1581 µM): 0.783 | relative viability (NCI-H1666; first compound 0.5 µM): 0.876 | relative viability (NCI-H1734; first compound 0.005 µM): 0.847 | relative viability (NCI-H1734; first compound 0.01581 µM): 0.795 | relative viability (NCI-H1734; first compound 0.05 µM): 1.03 | relative viability (NCI-H1734; first compound 0.1581 µM): 0.674 | relative viability (NCI-H1734; first compound 0.5 µM): 0.858 | relative viability (NCI-H1755; first compound 0.005 µM): 0.968 | relative viability (NCI-H1755; first compound 0.01581 µM): 0.918 | relative viability (NCI-H1755; first compound 0.05 µM): 1.05 | relative viability (NCI-H1755; first compound 0.1581 µM): 1.02 | relative viability (NCI-H1755; first compound 0.5 µM): 0.96 | relative viability (NCI-H1975; first compound 0.005 µM): 0.976 | relative viability (NCI-H1975; first compound 0.01581 µM): 0.893 | relative viability (NCI-H1975; first compound 0.05 µM): 0.956 | relative viability (NCI-H1975; first compound 0.1581 µM): 0.784 | relative viability (NCI-H1975; first compound 0.5 µM): 0.916 | relative viability (NCI-H23; first compound 0.005 µM): 0.521 | relative viability (NCI-H23; first compound 0.01581 µM): 0.534 | relative viability (NCI-H23; first compound 0.05 µM): 0.64 | relative viability (NCI-H23; first compound 0.1581 µM): 0.317 | relative viability (NCI-H23; first compound 0.5 µM): 0.534 | relative viability (NCI-H441; first compound 0.005 µM): 0.588 | relative viability (NCI-H441; first compound 0.01581 µM): 0.56 | relative viability (NCI-H441; first compound 0.05 µM): 0.559 | relative viability (NCI-H441; first compound 0.1581 µM): 0.481 | relative viability (NCI-H441; first compound 0.5 µM): 0.559 | relative viability (NCI-H520; first compound 0.005 µM): 0.838 | relative viability (NCI-H520; first compound 0.01581 µM): 0.966 | relative viability (NCI-H520; first compound 0.05 µM): 0.883 | relative viability (NCI-H520; first compound 0.1581 µM): 0.935 | relative viability (NCI-H520; first compound 0.5 µM): 0.821 | relative viability (NCI-H596; first compound 0.005 µM): 1.1 | relative viability (NCI-H596; first compound 0.01581 µM): 1.03 | relative viability (NCI-H596; first compound 0.05 µM): 0.953 | relative viability (NCI-H596; first compound 0.1581 µM): 0.952 | relative viability (NCI-H596; first compound 0.5 µM): 1.01 | relative viability (PC-3 [JPC-3]; first compound 0.005 µM): 0.903 | relative viability (PC-3 [JPC-3]; first compound 0.01581 µM): 0.921 | relative viability (PC-3 [JPC-3]; first compound 0.05 µM): 1 | relative viability (PC-3 [JPC-3]; first compound 0.1581 µM): 1.01 | relative viability (PC-3 [JPC-3]; first compound 0.5 µM): 0.915 | relative viability (SK-MES-1; first compound 0.005 µM): 1.08 | relative viability (SK-MES-1; first compound 0.01581 µM): 1.07 | relative viability (SK-MES-1; first compound 0.05 µM): 1.05 | relative viability (SK-MES-1; first compound 0.1581 µM): 1.14 | relative viability (SK-MES-1; first compound 0.5 µM): 1.07
